Assay results from patent US8466203B2, “Method of stabilizing human eye tissue by reaction with nitrite and related agents such as nitro compounds” (priority 2006, dated 2013).

What was measured:
[1] = tested on: human sclera; experiment: Thermal shrinkage temperature analysis of human scleral strips; details: pH 7.4, 37° C., 96 hrs
Description: (§1) Thermal shrinkage temperature or denaturation temperature (Ts) is a technique that has been used for decades in studying collagen cross-linking. As collagen fibers are progressively heated, a threshold temperature is reached at which point disruption of hydrogen bonding in the collagen molecule triple helix occurs, resulting in unwinding of the triple helices. The denaturation of tertiary protein structure results in a rapid shrinkage of the tissue of up to 80%. This phenomenon can be expressed in various ways including temperature of onset of tissue shrinkage, temperature at maximal tissue shrinkage, and temperature at 50% of maximal tissue shrinkage, for example. In addition, differential scanning calorimetry (DSC) is related to thermal shrinkage temperature analysis and is widely used to evaluate biomaterial cross-linking. Thermal shrinkage temperature is essentially a simplified version of DSC and can be used effectively to screen the cross-linking efficacy of compounds. For the purposes of this study, the onset of shrinkage is considered the Ts and the temperature at which 50% of maximal shrinkage has occurred is T50. Graphs depicting the relationship between degree of shrinkage and temperature indicate differences in degree of cross-linking between groups. Thus, stabilization of collagen fiber structures through non-enzymatic cross-linking increases Ts and T50. A 5° C. upward shift in Ts for the anterior corneal stroma has been shown for the UVR cross-linking method (Spoerl, E., et al., 2004).
(§2) A semi-automated system has been developed which increases the efficiency and accuracy of Ts data collection. This system can perform multiple Ts assays in succession, allowing rapid screening of a number of potential cross-linking agents and conditions. […] Inlet and outlet fittings allow for constant circulation of heated water which is modulated by a digitally controlled water bath equipped with a water pump. The entire box is placed on a digital photo scanner connected to a Windows based computer. Beginning at 50° C. the temperature is raised at a rate of 1° C./min and serial scans are taken at every degree increase in temperature up to 80° C. Control pig corneas shrink at approximately 63° C. and cross-linked tissue at higher temperatures. As the tissue shrinks, the images are captured by the scanner. The image files are later analyzed for 2-dimensional area using NIH Image J software and % shrinkage calculations are made using Microsoft Excel for graphing purposes. This method obviates the need for removal of tissue pieces from the water bath with manual micrometer measurements as described by the UVR group (Spoerl, E., et al., 2004). Thus, the labor involved in acquiring data is lessened and the accuracy using image analysis is improved.
Shrinkage temperature (Ts) of porcine cornea (FIG. 16) and porcine and human sclera (FIGS. 17 and 18) cross-linked with 2-nitroethanol. […] Following reaction, thermal shrinkage temperature analysis was performed (Table 4). Several compounds were studied including NaNO2, 2-nitroethanol, 2-nitro-1-propanol, 3-nitro-2-pentanol, 2-nitrophenol, 2-nitroethane, 2-aminoethanol, isopentyl nitrite, DPTA/NO, DETA/NO, and urea, a nitrous acid trap.

[2] = tested on: porcine cornea; experiment: Thermal shrinkage temperature analysis of porcine corneal strips
Description: as §1, with “T50.” for “T50. A 5° C. upward shift in Ts for the anterior corneal stroma has been shown for the UVR cross-linking method (Spoerl, E., et al., 2004).”
as §2, with “This” for “A semi-automated system has been developed which increases the efficiency and accuracy of Ts data collection. This”, “Control pig corneas shrink at approximately 63° C. and cross-linked tissue at higher temperatures.” left out, “2004).” for “2004). Thus, the labor involved in acquiring data is lessened and the accuracy using image analysis is improved.”
Using this simple, reproducible assay enables the screening of a number of compounds for cross-linking efficacy. This is first performed using porcine eyes because of their low cost. Follow up studies can be performed using human eyes. Porcine eyes are obtained within 6 hrs of sacrifice (Hatfield Meat Packing, Inc., Hatfield Pa.). Eyes showing clear corneas and intact epithelia are chosen for study. […] Each strip is then cross-linked using a nitro agent. The incubation solution is 20% Dextran (T500) [to prevent tissue swelling] in 0.2 M NaH2PO4/Na2HPO4 (pH 7.4) with various concentrations of nitro agent (i.e. 1, 10, and 100 mM). […] The samples are then placed in 2 mL microcentrifuge tubes with 1 mL of incubation solution and reacted in a 34° C. water bath (simulating corneal temperature—Girardin, F., et al., “Relationship between corneal temperature and finger temperature,” Arch. Opthalmol. 1999; 117:166-169) for 24-96 hrs. Following incubation, the samples are evaluated for degree of cross-linking using the Ts assay as described above.

[3] = tested on: porcine cornea; experiment: Yellowing of cross-linked porcine cornea; details: 100 mM concentration
Protocol: These images were taken from tissues cross-linked with nitrite and the β-nitro alcohols 2-nitroethanol, 2-nitro-1-propanol, and […], for 48 hrs. […] Fresh porcine corneal strips and corneoscleral complexes were obtained within 6 hrs of sacrifice and incubated at 37° C. in buffered solutions (pH 7.4) containing 20% Dextran (T500) and either 100 mM NaNO2 or 100 mM of one each of the β-nitro alcohols. After 48 hrs, the following images were obtained. […] FIGS. 13 (B and D)
As such, the effects on corneal light transmission induced by cross-linking with β-nitro alcohols was evaluated using a method adopted from Dillon et al 2004.

[4] = tested on: porcine sclera; experiment: Yellowing of cross-linked scleral tissue
Protocol: Additional β-nitro alcohols related to 2-nitroethanol were also tested for scleral cross-linking efficacy. In addition to 2-nitroethanol, there was 2-nitro-1-propanol, 3-nitro-2-pentanol, and 2-nitrophenol. […] This effect was not blocked by addition of equimolar urea (Table 5).

Q: With O=[N+]([O-])CCO [2-nitroethanol] as the molecule, how does the “T50 (temperature at 50% of maximal shrinkage)” value ([1]; 1 mM) read?
A: Its value is 66.3 °C.

Q: What about the “T50 Δ (change in 50% shrinkage temperature compared to control)” value ([1]; 1 mM) of the same molecule?
A: The value was 0.3 °C.

Q: What about the “Ti (temperature at 1% absolute shrinkage)” value ([1]; 1 mM) of the same molecule?
A: Its value is 60.8 °C.

Q: What about the “T50 (temperature at 50% of maximal shrinkage)” value ([1]; 10 mM) of the same molecule?
A: The value was 68.2 °C.

Q: What about the “T50 Δ (change in 50% shrinkage temperature compared to control)” value ([1]; 10 mM) of the same molecule?
A: The value was 2.2 °C.

Q: And the “Ti (temperature at 1% absolute shrinkage)” value ([1]; 10 mM)?
A: The value was 64.4 °C.

Q: And the “T50 (temperature at 50% of maximal shrinkage)” value ([1]; 100 mM)?
A: The value was 73.5 °C.

Q: What about the “T50 Δ (change in 50% shrinkage temperature compared to control)” value ([1]; 100 mM) of the same molecule?
A: Its value is 7.5 °C.

Q: And the “Ti (temperature at 1% absolute shrinkage)” value ([1]; 100 mM)?
A: The value was 71.7 °C.

Q: What about the Ts onset shift ([2]; 1 mM serially applied over 6 days) of the same molecule?
A: The Ts onset shift was 1-2 °C.

Q: What about the “shift in Ts (in words)” value ([2]; 1 mM, 4 days without replacing the incubation solution) of the same molecule?
A: Its value is “did not produce a shift in Ts”.

Q: And the Ts onset shift ([2]; 10 mM)?
A: The Ts onset shift was 5 °C.

Q: What about the Ts onset shift ([2]; 100 mM) of the same molecule?
A: Its Ts onset shift is 8 °C.

Q: And the yellowing effect [3]?
A: Its yellowing effect is “significant yellowing effect”.

Q: And the “propensity to induce tissue yellowing” value [4]?
A: The value was “greatest propensity to induce tissue yellowing”.
